We go through 26 compounds from patent US9522886B2, “Pyridine derivatives” (Hoffmann-La Roche Inc., priority 2012, dated 2016).

Read-outs that look alike come from different tables or passages of the source. Some results are limits rather than exact numbers.

The term EC50 denotes the concentration at which the effect is half-maximal.

The target of one experiment is human CB1 receptors (Homo sapiens (Human), UniProt P21554). In words: cAMP assay, CHO cells expressing human CB1 receptors. The class given is cell-based. As for the experimental part:
(§1) CHO cells expressing human CB1 or CB2 receptors are seeded 17-24 hours prior to the experiment 50.000 cells per well in a black 96 well plate with flat clear bottom (Corning Costar #3904) in DMEM (Invitrogen No. 31331), 1×HT supplement, with 10% fetal calf serum and incubated at 5% CO2 and 37° C. in a humidified incubator. The growth medium was exchanged with Krebs Ringer Bicarbonate buffer with 1 mM IBMX and incubated at 30° C. for 30 min. Compounds were added to a final assay volume of 100 μl and incubated for 30 min at 30° C. Using the cAMP-Nano-TRF detection kit the assay (Roche Diagnostics) was stopped by the addition of 50 μl lysis reagent (Tris, NaCl, 1.5% Triton X100, 2.5% NP40, 10% NaN3) and 50 μl detection solutions (20 μM mAb Alexa700-cAMP 1:1, and 48 μM Ruthenium-2-AHA-cAMP) and shaken for 2 h at room temperature. The time-resolved energy transfer is measured by a TRF reader (Evotec Technologies GmbH), equipped with a ND:YAG laser as excitation source. The plate is measured twice with the excitation at 355 nm and at the emission with a delay of 100 ns and a gate of 100 ns, total exposure time 10 s at 730 (bandwidth 30 nm) or 645 nm (bandwidth 75 nm), respectively.
(§2) EC50 values were determined using Activity Base analysis (ID Business Solution, Limited).

The target of the next experiment is human CB2 receptors (Homo sapiens (Human), UniProt P34972). In words: cAMP assay, CHO cells expressing human CB2 receptors. The class given is cell-based. Conditions: functional cAMP assay, CHO cells expressing human CB2; read-out: human CB2 EC50. As for the experimental part: as §1, §2
human CB2 receptors, sequence (P34972 whole entry): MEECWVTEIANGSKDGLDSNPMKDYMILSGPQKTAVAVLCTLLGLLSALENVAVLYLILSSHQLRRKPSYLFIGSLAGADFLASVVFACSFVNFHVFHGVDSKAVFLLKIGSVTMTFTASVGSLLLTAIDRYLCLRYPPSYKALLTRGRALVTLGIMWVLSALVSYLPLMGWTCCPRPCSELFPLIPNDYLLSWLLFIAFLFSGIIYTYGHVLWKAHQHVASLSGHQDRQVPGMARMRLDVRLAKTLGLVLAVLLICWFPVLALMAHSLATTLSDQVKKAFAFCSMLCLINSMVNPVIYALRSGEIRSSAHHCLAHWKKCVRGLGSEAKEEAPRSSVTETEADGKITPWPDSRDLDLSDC
A general note: cAMP levels reflect the balance of adenylyl cyclase and phosphodiesterase activity.

[1] abbreviates: functional cAMP assay, CHO cells expressing human CB1, read-out: human CB1 EC50.

human CB1 receptors, sequence (P21554 whole entry): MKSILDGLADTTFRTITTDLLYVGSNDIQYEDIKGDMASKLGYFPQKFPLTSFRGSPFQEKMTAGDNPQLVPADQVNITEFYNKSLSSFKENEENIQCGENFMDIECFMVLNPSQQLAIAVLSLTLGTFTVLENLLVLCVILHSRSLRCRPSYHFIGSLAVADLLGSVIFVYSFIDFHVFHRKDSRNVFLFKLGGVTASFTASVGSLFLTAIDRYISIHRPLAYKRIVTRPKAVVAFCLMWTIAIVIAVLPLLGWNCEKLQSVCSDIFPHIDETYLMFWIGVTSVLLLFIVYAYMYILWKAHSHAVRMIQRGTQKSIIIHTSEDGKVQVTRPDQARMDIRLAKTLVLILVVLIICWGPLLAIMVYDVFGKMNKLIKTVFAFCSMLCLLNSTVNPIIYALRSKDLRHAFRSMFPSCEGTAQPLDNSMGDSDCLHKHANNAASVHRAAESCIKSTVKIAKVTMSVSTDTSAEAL

As to `NC(=O)[C@@H]1CCCC[C@@H]1NC(=O)c1ccc(C2CC2)c(OCC2CC2)n1` (relative stereo) [Example 12, 5-Cyclopropyl-6-cyclopropylmethoxy-pyridine-2-carboxylic acid (rel-(1S,2R)-2-carbamoyl-cyclohexyl)-amide], the EC50 at human CB1 receptors was > 10000 nM.

Take `CCCCC(CC(N)=O)NC(=O)c1ccc(C2CC2)c(OCC2CC2)n1` (single isomer, unassigned; (+)) [Example 10, (+)-5-Cyclopropyl-6-cyclopropylmethoxy-pyridine-2-carboxylic acid (1-carbamoylmethyl-pentyl)-amide]: the EC50 on human CB2 receptors was found to be 0.3 nM.

As to `NC(=O)CC(NC(=O)c1ccc(C2CC2)c(OCC2CC2)n1)C1CCCCC1` (single isomer, unassigned; (+)) [Example 18, (+)-5-Cyclopropyl-6-cyclopropylmethoxy-pyridine-2-carboxylic acid (2-carbamoyl-1-cyclohexyl-ethyl)-amide], the values for the EC50 on human CB2 receptors and on human CB1 receptors (setting [1]) were 1.5 nM and > 10000 nM, respectively.

Regarding `NC(=O)CC(NC(=O)c1ccc(C2CC2)c(OCC2CC2)n1)C1CC1` (single isomer, unassigned; (+)) [Example 28, (+)-5-Cyclopropyl-6-cyclopropylmethoxy-pyridine-2-carboxylic acid (2-carbamoyl-1-cyclopropyl-ethyl)-amide], the EC50 on human CB2 receptors was 3 nM; at human CB1 receptors (setting [1]), > 10000 nM.

For the compound `NC(=O)CC(NC(=O)c1ccc(C2CC2)c(OCC2CC2)n1)C(F)(F)F` (single isomer, unassigned; (+)) [Example 32, (+)-5-Cyclopropyl-6-cyclopropylmethoxy-pyridine-2-carboxylic acid (1-carbamoylmethyl-2,2,2-trifluoro-ethyl)-amide], the EC50 on human CB2 receptors was 137 nM; at human CB1 receptors (setting [1]), > 10000 nM.

As for `NC(=O)CC(NC(=O)c1ccc(N2CC(F)(F)C2)c(OCC2CC2)n1)C1CCOCC1` (single isomer, unassigned; (+)) [Example 59, (+)-6-Cyclopropylmethoxy-5-(3,3-difluoro-azetidin-1-yl)-pyridine-2-carboxylic acid [2-carbamoyl-1-(tetrahydro-pyran-4-yl)-ethyl]-amide], the half-maximal effective concentration (EC50) at human CB1 receptors (setting [1]) was > 10000 nM.

Regarding `CCCCC(CC(N)=O)NC(=O)c1ccc(C2CC2)c(OCC2CC2)n1` (single isomer, unassigned; (-)) [Example 9, (−)-5-Cyclopropyl-6-cyclopropylmethoxy-pyridine-2-carboxylic acid (1-carbamoylmethyl-pentyl)-amide], the EC50 at human CB2 receptors worked out at 2.1 nM.

Turning to `NC(=O)CC(NC(=O)c1ccc(C2CC2)c(OCC2CC2)n1)C1CCCCC1` (single isomer, unassigned; (-)) [Example 17, (−)-5-Cyclopropyl-6-cyclopropylmethoxy-pyridine-2-carboxylic acid (2-carbamoyl-1-cyclohexyl-ethyl)-amide], the EC50 at human CB2 receptors is 6.2 nM; at human CB1 receptors (setting [1]), > 10000 nM.

Take `NC(=O)CC(NC(=O)c1ccc(C2CC2)c(OCC2CC2)n1)C1CC1` (single isomer, unassigned; (-)) [Example 27, (−)-5-Cyclopropyl-6-cyclopropylmethoxy-pyridine-2-carboxylic acid (2-carbamoyl-1-cyclopropyl-ethyl)-amide]: the EC50 at human CB2 receptors was 1.4 nM; on human CB1 receptors (setting [1]), > 10000 nM.

With `NC(=O)CC(NC(=O)c1ccc(C2CC2)c(OCC2CC2)n1)C(F)(F)F` (single isomer, unassigned; (-)) [Example 31, (−)-5-Cyclopropyl-6-cyclopropylmethoxy-pyridine-2-carboxylic acid (1-carbamoylmethyl-2,2,2-trifluoro-ethyl)-amide], the EC50 at human CB2 receptors is 8.8 nM; on human CB1 receptors (setting [1]), > 10000 nM.

On to `NC(=O)CC(NC(=O)c1ccc(C2CC2)c(OCC2CC2)n1)C1CCOCC1` (single isomer, unassigned; (-)) [Example 34, (−)-5-Cyclopropyl-6-cyclopropylmethoxy-pyridine-2-carboxylic acid [2-carbamoyl-1-(tetrahydro-pyran-4-yl)-ethyl]-amide], for which the EC50 is 2.2 nM on human CB2 receptors and > 10000 nM on human CB1 receptors (setting [1]).

As for `NC(=O)CC(NC(=O)c1ccc(N2CC(F)(F)C2)c(OCC2CC2)n1)C1CCOCC1` (single isomer, unassigned; (-)) [Example 58, (−)-6-Cyclopropylmethoxy-5-(3,3-difluoro-azetidin-1-yl)-pyridine-2-carboxylic acid [2-carbamoyl-1-(tetrahydro-pyran-4-yl)-ethyl]-amide], the EC50 on human CB1 receptors (setting [1]) was > 10000 nM.

`NC(=O)[C@@H]1CCCC[C@@H]1NC(=O)c1ccc(C2CC2)c(OCC2CC2)n1` (stereo in doubt) [Example 15, (+)-cis-5-Cyclopropyl-6-cyclopropylmethoxy-pyridine-2-carboxylic acid (2-carbamoyl-cyclohexyl)-amide]: the EC50 on human CB1 receptors was > 10000 nM.

Take `NC(=O)[C@H]1CCCC[C@@H]1NC(=O)c1ccc(C2CC2)c(OCC2CC2)n1` (stereo in doubt) [Example 16, (−)-trans-5-Cyclopropyl-6-cyclopropylmethoxy-pyridine-2-carboxylic acid (2-carbamoyl-cyclohexyl)-amide]: the EC50 on human CB1 receptors (setting [1]) was 172 nM.

Turning to `NC(=O)[C@@H]1CCCC[C@@H]1NC(=O)c1ccc(N2CC(F)(F)C2)c(OCC2CC2)n1` (stereo in doubt) [Example 20, (+)-cis-6-Cyclopropylmethoxy-5-(3,3-difluoro-azetidin-1-yl)-pyridine-2-carboxylic acid (2-carbamoyl-cyclohexyl)-amide], the EC50 on human CB2 receptors was 15.8 nM; on human CB1 receptors (setting [1]), > 10000 nM.

As for `CCOC(=O)CC1(NC(=O)c2ccc(C3CC3)c(OCC3CC3)n2)COC1` [Example 1, {3-[(5-Cyclopropyl-6-cyclopropylmethoxy-pyridine-2-carbonyl)-amino]-oxetan-3-yl}-acetic acid ethyl ester], the EC50 at human CB2 receptors was 53.7 nM; on human CB1 receptors (setting [1]), > 10000 nM.

For `CC(C)CC(CC(=O)OC(C)(C)C)NC(=O)c1ccc(N2CC(F)(F)C2)c(OCC2CC2)n1` (stereo not shown) [Example 2, tert-Butyl 3-({[6-(cyclopropylmethoxy)-5-(3,3-difluoroazetidin-1-yl)pyridin-2-yl]carbonyl}amino)-5-methylhexanoate], the concentration for a half-maximal effect (EC50) is 676 nM at human CB2 receptors and > 10000 nM at human CB1 receptors (setting [1]).

On to `CN1CC(NC(=O)c2ccc(N3CC(F)(F)C3)c(OCC3CC3)n2)CC1=O` (stereo not shown) [Example 3, 6-Cyclopropylmethoxy-5-(3,3-difluoro-azetidin-1-yl)-pyridine-2-carboxylic acid (1-methyl-5-oxo-pyrrolidin-3-yl)-amide], for which, at human CB1 receptors (setting [1]), the EC50 was > 10000 nM.

As to `CCOC(=O)CC(NC(=O)c1ccc(N2CC(F)(F)C2)c(OCC2CC2)n1)c1ccccc1` (stereo not shown) [Example 4, 3-{[6-Cyclopropylmethoxy-5-(3,3-difluoro-azetidin-1-yl)-pyridine-2-carbonyl]-amino}-3-phenyl-propionic acid ethyl ester], the EC50 is 4.2 nM on human CB2 receptors and > 10000 nM on human CB1 receptors (setting [1]).

`CCOC(=O)CC(C)(C)NC(=O)c1ccc(N2CC(F)(F)C2)c(OCC2CC2)n1` [Example 5, 3-{[6-Cyclopropylmethoxy-5-(3,3-difluoro-azetidin-1-yl)-pyridine-2-carbonyl]-amino}-3-methyl-butyric acid ethyl ester]: the half-maximal effective concentration (EC50) on human CB2 receptors is 518 nM; at human CB1 receptors (setting [1]), > 10000 nM.

For the compound `CNC(=O)CC(C)(C)NC(=O)c1ccc(N2CC(F)(F)C2)c(OCC2CC2)n1` [Example 6, 6-Cyclopropylmethoxy-5-(3,3-difluoro-azetidin-1-yl)-pyridine-2-carboxylic acid (1,1-dimethyl-2-methylcarbamoyl-ethyl)-amide], the EC50 was 172 nM on human CB2 receptors and > 10000 nM at human CB1 receptors (setting [1]).

As to `CCCCCC(CC(=O)NC)NC(=O)c1ccc(N2CC(F)(F)C2)c(OCC2CC2)n1` (stereo not shown) [Example 7, 6-Cyclopropylmethoxy-5-(3,3-difluoro-azetidin-1-yl)-pyridine-2-carboxylic acid (1-methylcarbamoylmethyl-hexyl)-amide], the EC50 at human CB2 receptors is 55.6 nM; at human CB1 receptors (setting [1]), > 10000 nM.

`CC(C)[C@@H](CC(N)=O)NC(=O)c1ccc(C2CC2)c(OCC2CC2)n1` [Example 13, 5-Cyclopropyl-6-cyclopropylmethoxy-pyridine-2-carboxylic acid ((R)-1-carbamoylmethyl-2-methyl-propyl)-amide]: the EC50 on human CB2 receptors was found to be 5 nM.

For `CC(C)[C@H](CC(N)=O)NC(=O)c1ccc(C2CC2)c(OCC2CC2)n1` [Example 14, 5-Cyclopropyl-6-cyclopropylmethoxy-pyridine-2-carboxylic acid ((S)-1-carbamoylmethyl-2-methyl-propyl)-amide], the concentration for a half-maximal effect (EC50) on human CB2 receptors was 1.5 nM.

As to `NC(=O)CC(NC(=O)c1ccc(N2CC(F)(F)C2)c(OCC2CC2)n1)C1CCOCC1` (stereo not shown) [Example 53, 6-Cyclopropylmethoxy-5-(3,3-difluoro-azetidin-1-yl)-pyridine-2-carboxylic acid [2-carbamoyl-1-(tetrahydro-pyran-4-yl)-ethyl]-amide], the concentration giving a half-maximal response (EC50) at human CB1 receptors (setting [1]) was > 10000 nM.

On to `NC(=O)CC1(NC(=O)c2ccc(N3CC(F)(F)C3)c(OCC3CC3)n2)CSC1` [Example 91, N-[3-(2-Amino-2-oxoethyl)thietan-3-yl]-6-(cyclopropylmethoxy)-5-(3,3-difluoroazetidin-1-yl)pyridine-2-carboxamide], for which, at human CB1 receptors (setting [1]), the EC50 is > 10000 nM.
